# Results taken from patent US11622988B2, “Method for reducing fat accumulation by using tetramethylisoscutellarein” (TCI CO., LTD., priority 2018, dated 2023).
# Tested on: mouse bone marrow stromal cell OP9
# Assay: Oil-red O staining of fat accumulation in differentiated OP9 cells
# Type: cell-based
# Conditions: 10 μg/mL, incubated 7-10 days, O.D. 510 nm
# Protocol: First, 8×10^4 mouse bone marrow stromal cell OP9 (ATCC® CRL-2749™) was seeded with 500 μL of pre-adipocyte expansion medium (supplemented with 90% minimum essential medium alpha medium (Gibco), […] (Gibco) and 1% penicillin/streptomycin (Gibco)) in a 24-well plate, and incubated at 37° C. for 7 days. Fresh differentiation medium (supplemented with 90% minimum essential medium alpha medium, 20% fetal bovine serum, and 1% penicillin/streptomycin) was replaced every three days. After 7 days, lipid droplet formation was observed using microscopy (ZEISS) to make sure the cells are fully differentiated.
# Thereafter, five groups of OP9 cells (i.e. an experimental group, three comparative groups (comparative group 1 to comparative group 3) and a control group) were prepared. […]
# The oil droplet was dissolved using 100% isopropanol, and the plate was put on shaker and incubation for 10 min. A volume of 100 μL was taken to 96-well plate for measuring the O.D ratio (510 nm) with the ELISA reader (BioTek).
# The statistical significance of the differences between each group was determined by Student's t-test in Microsoft Excel. […]
smiles,measurement,value
COc1ccc(-c2cc(=O)c3c(OC)cc(OC)c(OC)c3o2)cc1 [tetramethylisoscutellarein],"oil red relative percentage, lower than the control group",28%
